Entries after “also recorded” stand apart in the source; their conditions may differ. Read-outs that look alike come from different tables or passages of the source. Where no end group is shown, it is not given here.
Assays:
Assay type in all cases: cell-based, rat
duct monolayer = experiment: Induction of non-adherent cells (NACs, floating progenitor cells) from confluent pancreatic duct monolayer culture
NACs = experiment: Calcium imaging (Fluo-3) of glucose-induced calcium current in NACs; details: Fluo-3, confocal microscopy
Method: Cells were then washed to remove excess dye and placed onto a heated microscope stage (Olympus) and maintained at 32° C. Fluo-3 fluorescence intensity was used as an indicator of intracellular calcium concentration and was measured with a confocal laser-scanning microscope (Olympus). The excitation wavelength was set to 488 nm (argon ion laser) and a 40×water lens was used. The same parameters for laser scanning were set for each experiment, including confocal aperture and laser intensity. The laser scanning was performed as an XYT series with an interval of 10 seconds between each scan in order to resolve glucose-induced changes in intracellular calcium. The imaging files were stored and subsequently analyzed with FLUOVIEW software (Olympus). Cells of interest were circled and the mean intensity of the circled areas was plotted over time.

duct spheres = experiment: Duct sphere differentiation after growth with added factors, immunohistochemistry; details: LIF in growth culture medium in addition to six growth factors
Method: Ducts are dissociated into single cells by the dissociation enzyme cocktail containing 1.33 mg/ml Trypsin, 0.7 mg/ml Hyaluronidase, 0.2 mg/ml Kynerenic Acid, and 200 U/ml DNase and plated into sphere culture media (culture media containing 10 ng/ml bFGF, 20 ng/ml EGF, 40 ng/ml HGF, 8 ng/ml TGF α, 30 ng/ml IGF-I and IGF-II, 2% B27 supplements (Gibco/BRL), 8 mM HEMES, 2 mM Glutamine, 100 U/ml penicillin and 100 ug/ml streptomycin in DMEM-F12 medium). After two days in culture, the primary spheres were taken onto HTB-9 matrix in the differentiation media (5% FBS in Iscove Media containing 200 ng/ml PYY and 30 uM Forskolin) for 4 days differentiation. The cells are fixed by 1% PFA followed by IHC analysis.

duct cultures = experiment: Immunostaining for insulin in duct cultures; details: FIG. 12; 48 hours in varying secretin doses
[1] = factor added to day 5 duct monolayer, 48 hours

Compound: TGFβ1: growth factor TGFβ1
- effect on NAC / floating progenitor cell generation (duct monolayer; [1]): only slight effects

Compound: O=C(O)CN(CCOCCOCCN(CC(=O)O)CC(=O)O)CC(=O)O [EGTA]
- effect on calcium current in NACs (NACs): inhibited

Compound: LIF: leukemia inhibitory factor
- insulin positive cells upon differentiation (duct spheres): many fewer
- relative amount of Somatostatin positive cells upon differentiation (duct spheres): greatly increased

Compound: insulin: hormone insulin added to culture
- effect on secretin-induced induction of floating progenitor cells (duct monolayer; FIG. 14, insulin 10 ng/ml added simultaneously with secretin 100 nM): diminished

Compound: O=CC[C@@H](O)[C@H](O)[C@H](O)CO [2-deoxyglucose]
- effect on calcium current in NACs (NACs): not induced

Compound: CCCC(=O)[O-].[Na+] [Na-Butyrate, sodium butyrate, reference compound]
- effect on NAC / floating progenitor cell generation (duct monolayer): can substitute for DCE
- induction of differentiation of duct monolayer (duct monolayer): found to induce differentiation

Compound: secretin: secretin
- number of insulin positive cells in the monolayer (duct cultures): increases with secretin dose
- induction of differentiation of duct monolayer (duct monolayer; duct monolayer culture): can induce differentiation
- effect on NAC / floating progenitor cell generation (duct monolayer; [1]): dose dependent increase

Compound: CC1=NS(=O)(=O)c2cc(Cl)ccc2N1 [diazoxide]
- effect on calcium current in NACs (NACs): completely inhibited

Compound: VIP: Vasoactive Intestinal Peptide (HSDAVFTDNYTRLRKQMAVKKYLNSILN-NH2; ends and bridges not checked; UniProt P01282 125-152, looked up)
- increase in number of floating progenitor cells versus control (duct monolayer; FIG. 13, 50 ng/ml, 48 hours, control 5% FCS): > 3 fold
- optimal dosage for induction of floating progenitor cells (duct monolayer; FIG. 13, 48 hours of treatment): 50 ng/mL
- effect on NAC / floating progenitor cell generation (duct monolayer; [1]): inducing the appearance of floating progenitor cells

Compound: Cholera toxin [reference compound]
- effect on NAC / floating progenitor cell generation (duct monolayer): majority of the activity
- induction of differentiation of duct monolayer (duct monolayer): found to induce differentiation

Compound: EGF: epidermal growth factor (NSDSECPLSHDGYCLHDGVCMYIEALDKYACNCVVGYIGERCQYRDLKWWELR; UniProt P01133 971-1023, looked up)
- effect on NAC / floating progenitor cell generation (duct monolayer; [1]): neither dexamethasone nor EGF alone had significant effects

Compound: CCCC(=O)Nc1ncnc2c1ncn2[C@@H]1O[C@@H]2COP(=O)(O)O[C@H]2[C@H]1OC(=O)CCC [Dibutyrl cAMP, dibutyryl-cAMP, reference compound]
- induction of differentiation of duct monolayer (duct monolayer; duct monolayer culture): found to induce differentiation
- effect on NAC / floating progenitor cell generation (duct monolayer; [1]): can substitute for DCE

Compound: CCCCNC(=O)NS(=O)(=O)c1ccc(C)cc1 [tolbutamide]
- effect on calcium current in NACs (NACs): activated; also recorded: stimulated a calcium current

Compound: HGF: hepatocyte growth factor
- effect on NAC / floating progenitor cell generation (duct monolayer; [1]): only slight effects

Compound: forskolin [reference compound]
- effect on NAC / floating progenitor cell generation (duct monolayer): can substitute for DCE
- induction of differentiation of duct monolayer (duct monolayer): found to induce differentiation

Source: patent US6610535B1, “Progenitor cells and methods and uses related thereto” (ES Cell International Pte Ltd., priority 2000, dated 2003)
